Where “and” joins values, the source holds several entries; their conditions need not be identical. Identical values can stand only once. Toxic doses and inconclusive results are not listed. Cut-off read from the data, not from the text of the source: active = T/C of 150% or more; inactive = T/C below 125%.
Tested on: L1210 leukemia ip in BDF1 mice, survival T/C
Test: NCI In Vivo Anticancer Drug Screen. Data for tumor model L1210 Leukemia (intraperitoneal) in B6D2F1 (BDF1) mice
Details: higher = longer survival
How it was run: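 In this screen, tumor-bearing mice given compound are compared to those given vehicle, and their survival values are reported as a treated-to-control quotient.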

[1] = endpoint: mean survival time, dose: 100.0 mg/kg/injection, schedule: Q01DX001 (ip), vehicle: saline
[2] = endpoint: mean survival time, dose: 200.0 mg/kg/injection, schedule: Q01DX001 (ip), vehicle: saline
[3] = endpoint: mean survival time, dose: 6.25 mg/kg/injection, schedule: Q01DX009 (ip), vehicle: saline
[4] = endpoint: mean survival time, dose: 25.0 mg/kg/injection, schedule: Q01DX009 (ip), vehicle: saline
[5] = endpoint: mean survival time, dose: 100.0 mg/kg/injection, schedule: Q04DX003 (ip), vehicle: saline with Tween-80
[6] = endpoint: mean survival time, dose: 200.0 mg/kg/injection, schedule: Q04DX003 (ip), vehicle: saline with Tween-80

Measured: T/C

COc1cc([C@@H]2c3cc4c(c(O)c3C[C@H]3COC(=O)[C@@H]32)OCO4)cc(OC)c1OC
inactive: endpoint: mean survival time, dose: 0.06 mg/kg/injection, schedule: Q01DX Z (ip), vehicle: saline 100 % of control | endpoint: mean survival time, dose: 0.12 mg/kg/injection, schedule: Q01DX Z (ip), vehicle: saline 103 % of control | endpoint: mean survival time, dose: 0.25 mg/kg/injection, schedule: Q01DX Z (ip), vehicle: saline 113 % of control | endpoint: mean survival time, dose: 0.5 mg/kg/injection, schedule: Q01DX Z (ip), vehicle: saline 116 % of control | endpoint: mean survival time, dose: 1.0 mg/kg/injection, schedule: Q01DX Z (ip), vehicle: saline 99 % of control | endpoint: mean survival time, dose: 1.5 mg/kg/injection, schedule: Q01DX Z (ip), vehicle: saline 115 % of control | endpoint: mean survival time, dose: 2.25 mg/kg/injection, schedule: Q01DX Z (ip), vehicle: saline 108 % of control | endpoint: mean survival time, dose: 28.0 mg/kg/injection, schedule: Q01DX001 (ip), vehicle: saline 102 % of control | endpoint: mean survival time, dose: 45.0 mg/kg/injection, schedule: Q01DX001 (ip), vehicle: saline 122 % of control | endpoint: mean survival time, dose: 50.0 mg/kg/injection, schedule: Q01DX001 (ip), vehicle: saline 101 % of control | endpoint: mean survival time, dose: 65.0 mg/kg/injection, schedule: Q01DX001 (ip), vehicle: saline 111 % of control | [1] 112 % of control | [2] 112 % of control | endpoint: mean survival time, dose: 400.0 mg/kg/injection, schedule: Q01DX001 (ip), vehicle: saline 117 % of control | endpoint: median survival time, dose: 0.25 mg/kg/injection, schedule: Q01DX009 (ip), vehicle: Klucel (hydroxypropylcellulose) (HPC) 100 % of control | endpoint: median survival time, dose: 0.5 mg/kg/injection, schedule: Q01DX009 (ip), vehicle: Klucel (hydroxypropylcellulose) (HPC) 100 % of control | endpoint: median survival time, dose: 1.0 mg/kg/injection, schedule: Q01DX009 (ip), vehicle: Klucel (hydroxypropylcellulose) (HPC) 100 % of control | endpoint: median survival time, dose: 2.0 mg/kg/injection, schedule: Q01DX009 (ip), vehicle: Klucel (hydroxypropylcellulose) (HPC) 100 % of control

CC1(C)CC(OP(=O)(N2CC2)N2CC2)CC(C)(C)N1O
inactive: endpoint: mean survival time, dose: 50.0 mg/kg/injection, schedule: Q01DX001 (ip), vehicle: water 102 % of control | endpoint: mean survival time, dose: 100.0 mg/kg/injection, schedule: Q01DX001 (ip), vehicle: water 98 % of control | endpoint: mean survival time, dose: 200.0 mg/kg/injection, schedule: Q01DX001 (ip), vehicle: water 102 % of control

C=CCc1cc(Nc2c3ccc(Cl)cc3nc3ccc(OC)cc23)cc(CN(CC)CC)c1O
inactive: endpoint: mean survival time, dose: 50.0 mg/kg/injection, schedule: Q04DX002 (ip), vehicle: saline 106 % of control | endpoint: mean survival time, dose: 100.0 mg/kg/injection, schedule: Q04DX002 (ip), vehicle: saline 98 % of control | endpoint: mean survival time, dose: 200.0 mg/kg/injection, schedule: Q04DX002 (ip), vehicle: saline 98 % of control

Cc1nc2ccc(O)cc2cc1CBr
inactive: [3] 112 % of control | endpoint: mean survival time, dose: 12.5 mg/kg/injection, schedule: Q01DX009 (ip), vehicle: saline 104 % of control | endpoint: mean survival time, dose: 12.5 mg/kg/injection, schedule: Q04DX003 (ip), vehicle: saline 107 % of control | [4] 106 % of control | endpoint: mean survival time, dose: 25.0 mg/kg/injection, schedule: Q04DX003 (ip), vehicle: saline 115 % of control | endpoint: mean survival time, dose: 50.0 mg/kg/injection, schedule: Q04DX003 (ip), vehicle: saline 97 % of control

NCCc1ccc2c(c1)OCO2
inactive: [4] 109 % of control | endpoint: mean survival time, dose: 50.0 mg/kg/injection, schedule: Q01DX009 (ip), vehicle: saline 107 % of control | endpoint: mean survival time, dose: 100.0 mg/kg/injection, schedule: Q01DX009 (ip), vehicle: saline 100 % of control and 107 % of control | endpoint: mean survival time, dose: 100.0 mg/kg/injection, schedule: Q04DX003 (ip), vehicle: saline 97 % of control | endpoint: mean survival time, dose: 200.0 mg/kg/injection, schedule: Q04DX003 (ip), vehicle: saline 102 % of control

COc1cccc(NC(=S)NN)c1
inactive: endpoint: mean survival time, dose: 12.5 mg/kg/injection, schedule: Q04DX002 (ip), vehicle: Klucel (hydroxypropylcellulose) (HPC) 92 % of control | endpoint: mean survival time, dose: 25.0 mg/kg/injection, schedule: Q04DX002 (ip), vehicle: Klucel (hydroxypropylcellulose) (HPC) 117 % of control

C[N+]1(CC(O)COc2ccc(Nc3ccc(N)c4c3C(=O)c3ccccc3C4=O)cc2)CCOCC1 (stereo not given)
inactive: endpoint: mean survival time, dose: 100.0 mg/kg/injection, schedule: Q01DX001 (ip), vehicle: acetone 90 % of control

O=C1Nc2ccc(Br)cc2C1=Nc1ccc(Cl)cc1
inactive: endpoint: mean survival time, dose: 100.0 mg/kg/injection, schedule: Q04DX002 (ip), vehicle: Klucel (hydroxypropylcellulose) (HPC) 95 % of control | endpoint: mean survival time, dose: 200.0 mg/kg/injection, schedule: Q04DX002 (ip), vehicle: Klucel (hydroxypropylcellulose) (HPC) 92 % of control | endpoint: mean survival time, dose: 400.0 mg/kg/injection, schedule: Q04DX002 (ip), vehicle: Klucel (hydroxypropylcellulose) (HPC) 89 % of control

O=C1OC(=O)C2C3CC(C12)C1C2C=CC(C2)C31 (stereo not given)
inactive: [5] 91 % of control | [6] 95 % of control | endpoint: mean survival time, dose: 400.0 mg/kg/injection, schedule: Q04DX003 (ip), vehicle: saline with Tween-80 103 % of control

CC(C)(C)OC(=O)CCC(NC(=O)OCc1ccccc1)C(=O)NN (stereo not given)
inactive: endpoint: mean survival time, dose: 50.0 mg/kg/injection, schedule: Q01DX009 (ip), vehicle: Klucel (hydroxypropylcellulose) (HPC) 100 % of control | endpoint: mean survival time, dose: 75.0 mg/kg/injection, schedule: Q01DX001 (ip), vehicle: Klucel (hydroxypropylcellulose) (HPC) 88 % of control | endpoint: mean survival time, dose: 100.0 mg/kg/injection, schedule: Q01DX009 (ip), vehicle: Klucel (hydroxypropylcellulose) (HPC) 110 % of control | endpoint: mean survival time, dose: 100.0 mg/kg/injection, schedule: Q04DX003 (ip), vehicle: Klucel (hydroxypropylcellulose) (HPC) 99 % of control | endpoint: mean survival time, dose: 150.0 mg/kg/injection, schedule: Q01DX001 (ip), vehicle: Klucel (hydroxypropylcellulose) (HPC) 108 % of control | endpoint: mean survival time, dose: 200.0 mg/kg/injection, schedule: Q01DX009 (ip), vehicle: Klucel (hydroxypropylcellulose) (HPC) 100 % of control | endpoint: mean survival time, dose: 200.0 mg/kg/injection, schedule: Q04DX003 (ip), vehicle: Klucel (hydroxypropylcellulose) (HPC) 106 % of control | endpoint: mean survival time, dose: 300.0 mg/kg/injection, schedule: Q01DX001 (ip), vehicle: Klucel (hydroxypropylcellulose) (HPC) 92 % of control | endpoint: mean survival time, dose: 400.0 mg/kg/injection, schedule: Q04DX003 (ip), vehicle: Klucel (hydroxypropylcellulose) (HPC) 105 % of control

C=C1C2CCC3C4(C)CC(OC5OC(CO)C(OS(=O)(=O)O)C(OS(=O)(=O)O)C5OC(=O)CCCC)CC(C(=O)O)C4CCC3(C2)C1O (stereo not given)
inactive: endpoint: mean survival time, dose: 3.12 mg/kg/injection, schedule: Q01DX009 (ip), vehicle: saline 104 % of control | [3] 92 % of control | [5] 98 % of control | [6] 106 % of control

CC/C=C(\C)CC(C)O (stereo not given)
inactive: endpoint: mean survival time, dose: 200.0 mg/kg/injection, schedule: Q04DX002 (ip), vehicle: saline with Tween-80 90 % of control | endpoint: mean survival time, dose: 400.0 mg/kg/injection, schedule: Q04DX002 (ip), vehicle: saline with Tween-80 90 % of control

COc1cc2c(cc1OC)N=Cc1cccn1C2
inactive: endpoint: mean survival time, dose: 25.0 mg/kg/injection, schedule: Q04DX002 (ip), vehicle: saline with Tween-80 94 % of control | endpoint: mean survival time, dose: 50.0 mg/kg/injection, schedule: Q04DX002 (ip), vehicle: saline with Tween-80 97 % of control | endpoint: mean survival time, dose: 100.0 mg/kg/injection, schedule: Q04DX002 (ip), vehicle: saline with Tween-80 90 % of control

CC(=O)Nc1ccc(N=CN(C)C)cc1
inactive: endpoint: mean survival time, dose: 100.0 mg/kg/injection, schedule: Q01DX009 (ip), vehicle: saline with Tween-80 94 % of control | endpoint: mean survival time, dose: 200.0 mg/kg/injection, schedule: Q01DX009 (ip), vehicle: saline with Tween-80 101 % of control

COc1cc(N(CCCl)CCCl)ccc1/C=N/Nc1nncn1N
inactive: endpoint: mean survival time, dose: 50.0 mg/kg/injection, schedule: Q01DX001 (ip), vehicle: carboxymethylcellulose (CMC) 101 % of control | endpoint: mean survival time, dose: 100.0 mg/kg/injection, schedule: Q01DX001 (ip), vehicle: carboxymethylcellulose (CMC) 98 % of control | endpoint: mean survival time, dose: 200.0 mg/kg/injection, schedule: Q01DX001 (ip), vehicle: carboxymethylcellulose (CMC) 110 % of control | endpoint: mean survival time, dose: 400.0 mg/kg/injection, schedule: Q01DX001 (ip), vehicle: carboxymethylcellulose (CMC) 104 % of control

N=C(N)SCc1ccc(Br)cc1
inactive: [1] 104 % of control | [2] 112 % of control
